# ChEMBL document CHEMBL3045768, “Potential anti-inflammatory activity and ulcerogenicity study of some novel pyrimido[4,5:4,5]pyrimido[1,6-a]azepine derivatives” (Med Chem Res, 2012)
# Legend:
# [1] = test system: Rattus norvegicus; experiment: Anti-inflammatory activity inRattus norvegicus albino (rat) assessed as inhibition of carrageenan-induced paw edema at 20 umol/kg, ip administered 1 hr before challenge measured after 2 hr; type: functional
# [2] = test system: Rattus norvegicus; experiment: Anti-inflammatory activity inRattus norvegicus albino (rat) assessed as inhibition of carrageenan-induced paw edema at 20 umol/kg, ip administered 1 hr before challenge measured after 1 hr; type: functional
# [3] = test system: Rattus norvegicus; experiment: Toxicity inRattus norvegicus albino (rat) assessed as ulcerogenicity at 20 umol/kg, po qd for 3 days; type: organism-based; conditions: in vivo, 72 h
# [4] = test system: Rattus norvegicus; experiment: Anti-inflammatory activity inRattus norvegicus albino (rat) assessed as inhibition of carrageenan-induced paw edema at 20 umol/kg, ip administered 1 hr before challenge measured after 3 hr relative to diclofenac-sodium; type: functional
# [5] = test system: Rattus norvegicus; experiment: Anti-inflammatory activity inRattus norvegicus albino (rat) assessed as inhibition of carrageenan-induced paw edema at 20 umol/kg, ip administered 1 hr before challenge measured after 3 hr; type: functional
# [6] = test system: Rattus norvegicus; experiment: Anti-inflammatory activity inRattus norvegicus albino (rat) assessed as inhibition of carrageenan-induced paw edema at 24 umol/kg, ip administered 1 hr before challenge measured after 3 hr; type: functional
# [7] = test system: Rattus norvegicus; experiment: Anti-inflammatory activity in ip dosedRattus norvegicus albino (rat) assessed as inhibition of carrageenan-induced paw edema administered 1 hr before challenge measured after 3 hr; type: functional, organism-based
# [8] = test system: Rattus norvegicus; experiment: Anti-inflammatory activity inRattus norvegicus albino (rat) assessed as inhibition of carrageenan-induced paw edema at 18 umol/kg, ip administered 1 hr before challenge measured after 3 hr; type: functional
# [9] = test system: Rattus norvegicus; experiment: Anti-inflammatory activity inRattus norvegicus albino (rat) assessed as inhibition of carrageenan-induced paw edema at 12 umol/kg, ip administered 1 hr before challenge measured after 3 hr; type: functional
IC50 [7],SMILES,inhibition in vivo at 20 µmol/kg [1],inhibition in vivo at 20 µmol/kg [2],UI [3],inhibition in vivo at 20 µmol/kg [4],inhibition in vivo at 20 µmol/kg [5],inhibition in vivo at 24 µmol/kg [6],inhibition in vivo at 18 µmol/kg [8],inhibition in vivo at 12 µmol/kg [9]
,O=C(Cc1ccccc1Nc1c(Cl)cccc1Cl)SCc1nc2c(c(=O)[nH]1)C1C(N3CCCC3)CCCCN1C(=O)N2c1ccccc1 (stereo not drawn),45.8%,33.1%,2.6,61.3%,53.1%,,,
7.26 µmol/kg,O=C([O-])Cc1ccccc1Nc1c(Cl)cccc1Cl.[Na+] [DICLOFENAC SODIUM],83.5%,68.6%,9,,87.6%,88.2%,79.3%,59.5%
,O=C1N(c2ccccc2)c2nc(CCN3CCOCC3)[nH]c(=O)c2C2C(N3CCCC3)CCCCN12 (stereo not drawn),52.2%,38.8%,3.4,59.9%,52.5%,,,
,O=C1N(c2ccccc2)c2ncnc(N3CCOCC3)c2C2C(N3CCCC3)CCCCN12 (stereo not drawn),21.2%,17.7%,,38.6%,33.8%,,,
,O=C1N(c2ccccc2)c2ncn(CN3CCCC3)c(=O)c2C2C(N3CCCC3)CCCCN12 (stereo not drawn),22.3%,16.2%,,37.2%,32.6%,,,
,O=C1N(c2ccccc2)c2ncnc(N3CCCC3)c2C2C(N3CCCC3)CCCCN12 (stereo not drawn),14.8%,9.5%,,31.1%,27.3%,,,
,O=C1N(c2ccccc2)c2ncnc(N3CCCCC3)c2C2C(N3CCCC3)CCCCN12 (stereo not drawn),17.4%,10.3%,,31.9%,27.9%,,,
,Nc1ncnc2c1C1C(N3CCCC3)CCCCN1C(=O)N2c1ccccc1 (stereo not drawn),22.8%,17.6%,,38.5%,33.7%,,,
11.73 µmol/kg,O=C(O)CSCc1nc2c(c(=O)[nH]1)C1C(N3CCCC3)CCCCN1C(=O)N2c1ccccc1 (stereo not drawn),73.2%,66.4%,2.7,97.7%,85.6%,89.6%,69.3%,51.2%
,O=C1N(c2ccccc2)c2nc(CCN3CCCC3)[nH]c(=O)c2C2C(N3CCCC3)CCCCN12 (stereo not drawn),32.5%,20.5%,,50.6%,44.3%,,,
,O=C1N(c2ccccc2)c2nc(CN3CCCCC3)[nH]c(=O)c2C2C(N3CCCC3)CCCCN12 (stereo not drawn),37.2%,28%,,48.4%,42.4%,,,
,O=C1N(c2ccccc2)c2ncn(CN3CCCCC3)c(=O)c2C2C(N3CCCC3)CCCCN12 (stereo not drawn),16.4%,11.9%,,33.4%,29.3%,,,
,N#CC1=C(NC(=O)Cc2ccccc2Nc2c(Cl)cccc2Cl)N(c2ccccc2)C(=O)N2CCCCC(N3CCCC3)C12 (stereo not drawn),48.5%,31.9%,4.1,76.7%,67.2%,,,
,O=C(SCc1nc2c(c(=O)[nH]1)C1C(N3CCCC3)CCCCN1C(=O)N2c1ccccc1)c1ccccc1O (stereo not drawn),36.9%,29.8%,3.4,56.4%,49.7%,,,
,O=C1N(c2ccccc2)c2nc(-c3ccccc3O)[nH]c(=O)c2C2C(N3CCCC3)CCCCN12 (stereo not drawn),27.9%,21.9%,,42.5%,37.2%,,,
,N#CC1=C(NC(=O)c2ccccc2O)N(c2ccccc2)C(=O)N2CCCCC(N3CCCC3)C12 (stereo not drawn),53.8%,44.7%,3.4,74.7%,65.4%,,,
,O=C1N(c2ccccc2)c2nc(CCN3CCCCC3)[nH]c(=O)c2C2C(N3CCCC3)CCCCN12 (stereo not drawn),35.7%,26.8%,,47.3%,41.4%,,,
,O=C1N(c2ccccc2)c2nc(Cc3ccccc3Nc3c(Cl)cccc3Cl)[nH]c(=O)c2C2C(N3CCCC3)CCCCN12 (stereo not drawn),35.2%,29.7%,,51.7%,45.3%,,,
,O=C1N(c2ccccc2)c2nc(CN3CCCC3)[nH]c(=O)c2C2C(N3CCCC3)CCCCN12 (stereo not drawn),42.2%,36.2%,,53.6%,48.7%,,,
,O=C1N(c2ccccc2)c2ncn(CN3CCOCC3)c(=O)c2C2C(N3CCCC3)CCCCN12 (stereo not drawn),18.5%,13.1%,,34.3%,30.1%,,,
,O=C1N(c2ccccc2)c2nc[nH]c(=O)c2C2C(N3CCCC3)CCCCN12 (stereo not drawn),26.8%,11%,,37.8%,33.1%,,,
,O=C1N(c2ccccc2)c2nc(CN3CCOCC3)[nH]c(=O)c2C2C(N3CCCC3)CCCCN12 (stereo not drawn),57.5%,51.9%,4.3,71.2%,62.4%,,,
